In the supplement of paper PMC10307832:

How the values were obtained:
Experiment in all cases: relative viability (nuclei count vs DMSO), 5 days (fraction); higher = more cells survive
CAL-12T = system: CAL-12T
Procedure, shortened: (§1)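 Relative viability divides the nuclei count in treated wells by that in vehicle wells. Lung cancer cell lines were seeded in 1536-well plates, dosed by pin tool the next day, and fixed and stained after 5 days in one step with final 0.05% Triton X-100, 1% formaldehyde and 1 ug/ml Hoechst. Dosing was a single drug or a fixed anchor-drug dose plus five library-drug doses (not always all listed) in √10 steps, and values are medians of duplicate plates imaged at 4×.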

EKVX = system: EKVX
Procedure, shortened: as §1

H3255 = system: H3255
Procedure, shortened: as §1

HCC-15 = system: HCC-15
Procedure, shortened: as §1

HCC-827 = system: HCC-827
Procedure, shortened: as §1

LCLC-97TM1 = system: LCLC-97TM1
Procedure, shortened: as §1

LK-2 = system: LK-2
Procedure, shortened: as §1

NCI-H1355 = system: NCI-H1355
Procedure, shortened: as §1

NCI-H1650 = system: NCI-H1650
Procedure, shortened: as §1

NCI-H1734 = system: NCI-H1734
Procedure, shortened: as §1

NCI-H1755 = system: NCI-H1755
Procedure, shortened: as §1

NCI-H1975 = system: NCI-H1975
Procedure, shortened: as §1

NCI-H2228 = system: NCI-H2228
Procedure, shortened: as §1

NCI-H2342 = system: NCI-H2342
Procedure, shortened: as §1

NCI-H2405 = system: NCI-H2405
Procedure, shortened: as §1

NCI-H322M = system: NCI-H322M
Procedure, shortened: as §1

NCI-H520 = system: NCI-H520
Procedure, shortened: as §1

NCI-H661 = system: NCI-H661
Procedure, shortened: as §1

PC-14 = system: PC-14
Procedure, shortened: as §1

PC-3 [JPC-3] = system: PC-3 [JPC-3]
Procedure, shortened: as §1

RERF-LC-KJ = system: RERF-LC-KJ
Procedure, shortened: as §1

CCN(CC)CCCCNc1ncc2cc(-c3cc(OC)cc(OC)c3)c(NC(=O)NC(C)(C)C)nc2n1 + O=C(CCCCCCC(=O)Nc1ccccc1)NO [Vorinostat] (partner 1 µM)
relative viability (CAL-12T; first compound 0.01 µM): 0.784 | relative viability (CAL-12T; first compound 0.03162 µM): 0.702 | relative viability (CAL-12T; first compound 0.1 µM): 0.766 | relative viability (CAL-12T; first compound 0.3162 µM): 0.778 | relative viability (CAL-12T; first compound 1 µM): 0.845 | relative viability (EKVX; first compound 0.01 µM): 0.814 | relative viability (EKVX; first compound 0.03162 µM): 0.734 | relative viability (EKVX; first compound 0.1 µM): 0.731 | relative viability (EKVX; first compound 0.3162 µM): 0.704 | relative viability (EKVX; first compound 1 µM): 0.621 | relative viability (H3255; first compound 0.01 µM): 0.702 | relative viability (H3255; first compound 0.1 µM): 0.946 | relative viability (H3255; first compound 0.3162 µM): 1.02 | relative viability (H3255; first compound 1 µM): 0.785 | relative viability (HCC-15; first compound 0.01 µM): 0.857 | relative viability (HCC-15; first compound 0.03162 µM): 0.849 | relative viability (HCC-15; first compound 0.1 µM): 0.867 | relative viability (HCC-15; first compound 0.3162 µM): 0.929 | relative viability (HCC-15; first compound 1 µM): 0.836 | relative viability (HCC-827; first compound 0.01 µM): 0.883 | relative viability (HCC-827; first compound 0.03162 µM): 0.969 | relative viability (HCC-827; first compound 0.1 µM): 0.866 | relative viability (HCC-827; first compound 0.3162 µM): 0.937 | relative viability (HCC-827; first compound 1 µM): 0.674 | relative viability (LCLC-97TM1; first compound 0.01 µM): 0.805 | relative viability (LCLC-97TM1; first compound 0.03162 µM): 0.779 | relative viability (LCLC-97TM1; first compound 0.1 µM): 0.615 | relative viability (LCLC-97TM1; first compound 0.3162 µM): 0.865 | relative viability (LCLC-97TM1; first compound 1 µM): 0.699 | relative viability (LK-2; first compound 0.01 µM): 0.266 | relative viability (LK-2; first compound 0.03162 µM): 0.213 | relative viability (LK-2; first compound 0.1 µM): 0.2 | relative viability (LK-2; first compound 0.3162 µM): 0.235 | relative viability (LK-2; first compound 1 µM): 0.252 | relative viability (NCI-H1355; first compound 0.01 µM): 0.647 | relative viability (NCI-H1355; first compound 0.03162 µM): 0.654 | relative viability (NCI-H1355; first compound 0.1 µM): 0.67 | relative viability (NCI-H1355; first compound 0.3162 µM): 0.657 | relative viability (NCI-H1355; first compound 1 µM): 0.616 | relative viability (NCI-H1650; first compound 0.01 µM): 0.625 | relative viability (NCI-H1650; first compound 0.03162 µM): 0.616 | relative viability (NCI-H1650; first compound 0.1 µM): 0.531 | relative viability (NCI-H1650; first compound 0.3162 µM): 0.655 | relative viability (NCI-H1650; first compound 1 µM): 0.432 | relative viability (NCI-H1734; first compound 0.01 µM): 0.849 | relative viability (NCI-H1734; first compound 0.03162 µM): 0.874 | relative viability (NCI-H1734; first compound 0.1 µM): 0.974 | relative viability (NCI-H1734; first compound 0.3162 µM): 0.864 | relative viability (NCI-H1734; first compound 1 µM): 0.757 | relative viability (NCI-H1755; first compound 0.01 µM): 0.71 | relative viability (NCI-H1755; first compound 0.03162 µM): 0.919 | relative viability (NCI-H1755; first compound 0.1 µM): 0.848 | relative viability (NCI-H1755; first compound 0.3162 µM): 0.965 | relative viability (NCI-H1755; first compound 1 µM): 0.746 | relative viability (NCI-H1975; first compound 0.01 µM): 0.758 | relative viability (NCI-H1975; first compound 0.03162 µM): 0.756 | relative viability (NCI-H1975; first compound 0.1 µM): 0.853 | relative viability (NCI-H1975; first compound 0.3162 µM): 0.78 | relative viability (NCI-H1975; first compound 1 µM): 0.548 | relative viability (NCI-H2228; first compound 0.01 µM): 0.643 | relative viability (NCI-H2228; first compound 0.03162 µM): 0.515 | relative viability (NCI-H2228; first compound 0.1 µM): 0.807 | relative viability (NCI-H2228; first compound 0.3162 µM): 0.794 | relative viability (NCI-H2228; first compound 1 µM): 0.595 | relative viability (NCI-H2342; first compound 0.01 µM): 0.699 | relative viability (NCI-H2342; first compound 0.03162 µM): 0.716 | relative viability (NCI-H2342; first compound 0.1 µM): 0.796 | relative viability (NCI-H2342; first compound 0.3162 µM): 0.708 | relative viability (NCI-H2342; first compound 1 µM): 0.875 | relative viability (NCI-H2405; first compound 0.01 µM): 0.795 | relative viability (NCI-H2405; first compound 0.03162 µM): 1.03 | relative viability (NCI-H2405; first compound 0.1 µM): 1.08 | relative viability (NCI-H2405; first compound 0.3162 µM): 1.22 | relative viability (NCI-H2405; first compound 1 µM): 0.94 | relative viability (NCI-H322M; first compound 0.01 µM): 0.787 | relative viability (NCI-H322M; first compound 0.03162 µM): 0.911 | relative viability (NCI-H322M; first compound 0.1 µM): 0.934 | relative viability (NCI-H322M; first compound 0.3162 µM): 0.966 | relative viability (NCI-H322M; first compound 1 µM): 0.872 | relative viability (NCI-H520; first compound 0.01 µM): 0.783 | relative viability (NCI-H520; first compound 0.03162 µM): 0.731 | relative viability (NCI-H520; first compound 0.1 µM): 0.673 | relative viability (NCI-H520; first compound 0.3162 µM): 0.633 | relative viability (NCI-H520; first compound 1 µM): 0.273 | relative viability (NCI-H661; first compound 0.01 µM): 0.781 | relative viability (NCI-H661; first compound 0.03162 µM): 0.757 | relative viability (NCI-H661; first compound 0.1 µM): 0.856 | relative viability (NCI-H661; first compound 0.3162 µM): 0.839 | relative viability (NCI-H661; first compound 1 µM): 0.741 | relative viability (PC-14; first compound 0.01 µM): 0.708 | relative viability (PC-14; first compound 0.03162 µM): 0.84 | relative viability (PC-14; first compound 0.1 µM): 0.969 | relative viability (PC-14; first compound 0.3162 µM): 0.881 | relative viability (PC-14; first compound 1 µM): 0.622 | relative viability (PC-3 [JPC-3]; first compound 0.03162 µM): 0.659 | relative viability (PC-3 [JPC-3]; first compound 0.1 µM): 0.937 | relative viability (PC-3 [JPC-3]; first compound 0.3162 µM): 1.18 | relative viability (PC-3 [JPC-3]; first compound 1 µM): 0.698 | relative viability (RERF-LC-KJ; first compound 0.01 µM): 0.748 | relative viability (RERF-LC-KJ; first compound 0.03162 µM): 0.71 | relative viability (RERF-LC-KJ; first compound 0.1 µM): 0.764 | relative viability (RERF-LC-KJ; first compound 0.3162 µM): 0.794 | relative viability (RERF-LC-KJ; first compound 1 µM): 0.661
